Literature values in patent US12478612B2 (CinDome Pharma, Inc., priority 2017, dated 2025).
Like-named read-outs stand apart in the source and are kept apart here.

How the values were obtained:
[1] = weak base

| Compound | pKa [1] | Human plasma protein binding (Human plasma protein; 10 ng/ml tritiated domperidone) | Human plasma protein binding (Human plasma protein; 100 ng/ml tritiated domperidone) |
| --- | --- | --- | --- |
| O=c1[nH]c2ccccc2n1CCCN1CCC(n2c(=O)[nH]c3cc(Cl)ccc32)CC1 [Domperidone, 5-chloro-1-(1-[3-(2-oxo-2,3-dihydro-1H-benzo[d]imidazol-1-yl)propyl]piperidin-4-yl)-1H-benzo[d]imidazol-2(3H)-one] | 7.89 |  |  |
| 5-chloro-1-(1-[3-(2-oxo-2,3-dihydro-1H-benzo[d]imidazol-1-yl)propyl]piperidin-4-yl)-1H-benzo[d]imidazol-2(3H)-one [Domperidone] |  | 91.7% | 93.0% |
